According to PubChem BioAssay (NCI):
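The concentration for 50% growth inhibition is given as GI50. At the TGI there is no net growth.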

Tests used:
Test in all cases: growth of human tumour cells (NCI), 384-well format
[1] = test system: HCT-116 colon
[2] = test system: DU-145 prostate
[3] = test system: IGROV1 ovarian
[4] = test system: SK-MEL-28 melanoma
[5] = test system: SN12C renal
[6] = test system: SR leukemia
[7] = test system: BT-549 breast
[8] = test system: KM12 colon
[9] = test system: COLO 205 colon
[10] = test system: EKVX NSCLC
[11] = test system: SF-295 CNS
[12] = test system: ACHN renal
[13] = test system: SNB-19 CNS
[14] = test system: OVCAR-3 ovarian
[15] = test system: MDA-MB-231 breast
[16] = test system: U251 glioblastoma
[17] = test system: UO-31 renal
[18] = test system: HT29 colon
[19] = test system: PC-3 prostate
[20] = test system: NCI-H522 lung
[21] = test system: HS 578T breast
[22] = test system: A549 NSCLC
[23] = test system: A498 renal
[24] = test system: NCI-H460 NSCLC
[25] = test system: NCI-H322M lung
[26] = test system: HCT-15 colon
[27] = test system: NCI-H226 lung
[28] = test system: T-47D breast
[29] = test system: MDA-MB-468 breast
[30] = test system: UACC-257 melanoma
[31] = test system: NCI-H23 lung
[32] = test system: SNB-75 CNS
[33] = test system: 786-0 renal
[34] = test system: SW-620 colon
[35] = test system: RXF 393 renal
[36] = test system: MOLT-4 leukemia
[37] = test system: SF-539 CNS
[38] = test system: OVCAR-5 ovarian
[39] = test system: MALME-3M melanoma
[40] = test system: OVCAR-8 ovarian
[41] = test system: K-562 leukemia
[42] = test system: M14 melanoma
[43] = test system: HOP-92 NSCLC
[44] = test system: CAKI-1 renal
[45] = test system: MCF7 breast
[46] = test system: SF-268 CNS
[47] = test system: SK-MEL-2 melanoma
[48] = test system: OVCAR-4 ovarian
[49] = test system: MDA-MB-435 melanoma
[50] = test system: HL-60(TB) leukemia
[51] = test system: SK-MEL-5 melanoma
[52] = test system: HOP-62 NSCLC
[53] = test system: SK-OV-3 ovarian
[54] = test system: TK-10 renal
[55] = test system: UACC-62 melanoma

Compound: CC(C)(C)C[C@H]1NC(C(=O)NCC[C@H](O)CO)[C@H](c2cccc(Cl)c2)[C@@]12C(=O)Nc1cc(Cl)c(F)cc12 (stereo not given in full)
- GI50 [1]: 0.962 µM
- TGI [1]: 13.8 µM
- GI50 [2]: 15.8 µM
- TGI [2]: 29.4 µM
- GI50 [3]: 6.37 µM
- TGI [3]: 20.2 µM
- GI50 [4]: 16.7 µM
- TGI [4]: 30.4 µM
- GI50 [5]: 17.1 µM
- TGI [5]: 30.9 µM
- GI50 [6]: 0.2 µM
- TGI [6]: 0.394 µM
- GI50 [7]: 15.1 µM
- TGI [7]: 28.5 µM
- GI50 [8]: 1.6 µM
- TGI [8]: 12.8 µM
- GI50 [9]: 15.8 µM
- TGI [9]: 29.3 µM
- GI50 [10]: 12.5 µM
- TGI [10]: 25 µM
- GI50 [11]: 12.9 µM
- TGI [11]: 25.6 µM
- GI50 [12]: 1.36 µM
- TGI [12]: 10.6 µM
- GI50 [13]: 15.8 µM
- TGI [13]: 29.4 µM
- GI50 [14]: 13.7 µM
- TGI [14]: 26.7 µM
- GI50 [15]: 16.2 µM
- TGI [15]: 29.8 µM
- GI50 [16]: 14.4 µM
- TGI [16]: 27.6 µM
- GI50 [17]: 4.29 µM
- TGI [17]: 15.9 µM
- GI50 [18]: 15.8 µM
- TGI [18]: 29.4 µM
- GI50 [19]: 13.1 µM
- TGI [19]: 25.9 µM
- GI50 [20]: 12.8 µM
- TGI [20]: 25.5 µM
- GI50 [21]: 6.45 µM
- TGI [21]: 20.4 µM
- GI50 [22]: 2.94 µM
- TGI [22]: 14.1 µM
- GI50 [23]: 1.12 µM
- TGI [23]: 11.7 µM
- GI50 [24]: 14.6 µM
- TGI [24]: 27.9 µM
- GI50 [25]: 17.5 µM
- TGI [25]: 31.4 µM
- GI50 [26]: 17.4 µM
- TGI [26]: 31.5 µM
- GI50 [27]: 0.515 µM
- TGI [27]: 2.17 µM
- GI50 [28]: 11.7 µM
- TGI [28]: 24 µM
- GI50 [29]: 3.31 µM
- TGI [29]: 16.1 µM
- GI50 [30]: 1.76 µM
- TGI [30]: 5.36 µM
- GI50 [31]: 15 µM
- TGI [31]: 28.3 µM
- GI50 [32]: 10.9 µM
- TGI [32]: 22.9 µM
- GI50 [33]: 15.6 µM
- TGI [33]: 29 µM
- GI50 [34]: 16.8 µM
- TGI [34]: 30.6 µM
- GI50 [35]: 2.38 µM
- TGI [35]: 15.3 µM
- GI50 [36]: 0.181 µM
- TGI [36]: 0.341 µM
- GI50 [37]: 13.4 µM
- TGI [37]: 26.3 µM
- GI50 [38]: 15.9 µM
- TGI [38]: 29.5 µM
- GI50 [39]: 0.582 µM
- TGI [39]: 14.7 µM
- GI50 [40]: 16.4 µM
- TGI [40]: 30.1 µM
- GI50 [41]: 13.7 µM
- TGI [41]: 27 µM
- GI50 [42]: 10.3 µM
- TGI [42]: 22.1 µM
- GI50 [43]: 14.7 µM
- TGI [43]: 27.8 µM
- GI50 [44]: 0.605 µM
- TGI [44]: 11.7 µM
- GI50 [45]: 0.243 µM
- TGI [45]: 1.77 µM
- GI50 [46]: 16 µM
- TGI [46]: 29.6 µM
- GI50 [47]: 14.6 µM
- TGI [47]: 27.7 µM
- GI50 [48]: 11.9 µM
- TGI [48]: 24.3 µM
- GI50 [49]: 14.6 µM
- TGI [49]: 27.8 µM
- GI50 [50]: 4.2 µM
- TGI [50]: 16.5 µM
- GI50 [51]: 2.79 µM
- TGI [51]: 16.4 µM
- GI50 [52]: 16.5 µM
- TGI [52]: 30.2 µM
- GI50 [53]: 13.9 µM
- TGI [53]: 27.1 µM
- GI50 [54]: 14.6 µM
- TGI [54]: 28.2 µM
- GI50 [55]: 0.591 µM
- TGI [55]: 11.1 µM
